Test results: US8309577B2, “Quinuclidine compounds as α-7 nicotinic acetylcholine receptor ligands” (Bristol-Myers Squibb Company, priority 2008, dated 2012)

Target: T1, α-7 nicotinic acetylcholine receptor channel expressed in HEK 293 cells (Rattus norvegicus, UniProt Q05941)
T1 construct: expressed in transfected cells
Assay: Ca2+-sensitive fluorescence-based FLIPR assay, α7 nicotinic ACh receptor channel function (agonist)
Assay type: cell-based
Settings: FLIPR α7 (EC50, nM), Table Ib; HEK 293 cells, agonist Ca2+ flux
Summary of the method: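 Potency and efficacy derived from kinetic FLIPR Ca²⁺-flux fluorescence, recorded 3 min after compound addition in Hanks buffer following a 10 s baseline.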

T1 sequence (Q05941 23-502): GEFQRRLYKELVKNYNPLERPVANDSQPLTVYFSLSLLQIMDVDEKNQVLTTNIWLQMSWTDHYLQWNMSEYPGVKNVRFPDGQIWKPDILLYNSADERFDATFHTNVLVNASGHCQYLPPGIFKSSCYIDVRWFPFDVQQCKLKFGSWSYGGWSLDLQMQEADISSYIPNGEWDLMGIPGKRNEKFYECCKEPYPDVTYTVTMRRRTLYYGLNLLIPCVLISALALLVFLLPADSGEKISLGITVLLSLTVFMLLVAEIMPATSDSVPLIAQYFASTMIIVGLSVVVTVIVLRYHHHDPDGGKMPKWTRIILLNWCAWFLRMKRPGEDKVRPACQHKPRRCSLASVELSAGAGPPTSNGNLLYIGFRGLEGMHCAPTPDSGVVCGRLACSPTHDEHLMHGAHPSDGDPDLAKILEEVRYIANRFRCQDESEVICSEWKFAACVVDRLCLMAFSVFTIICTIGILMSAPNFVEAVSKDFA

| SMILES | EC50 |
| --- | --- |
| Clc1cncc(-c2ccnc(NC3=NC[C@@]4(CN5CCC4CC5)O3)c2)c1 [Example 297, (R)—N-(5-Chloro-3,4′-bipyridin-2′-yl)-4H-1′-azaspiro[oxazole-5,3′-bicyclo[2.2.2]octan]-2-amine] | 35 nM |
| COc1ccc(-c2ccnc(NC3=NC[C@@]4(CN5CCC4CC5)O3)c2)cn1 [Example 298, (R)—N-(6-Methoxy-3,4′-bipyridin-2′-yl)-4H-1′-azaspiro[oxazole-5,3′-bicyclo[2.2.2]octan]-2-amine] | 25 nM |
| c1ccc(-c2ccnc(NC3=NC[C@@]4(CN5CCC4CC5)O3)c2)cc1 [Example 302, (R)—N-(4-Phenylpyridin-2-yl)-4H-1′-azaspiro[oxazole-5,3′-bicyclo[2.2.2]octan]-2-amine] | 9 nM |
| Cc1nc(NC2=NC[C@@]3(CN4CCC3CC4)O2)c(Cl)cc1Cl [Example 308, (R)—N-(3,5-Dichloro-6-methylpyridin-2-yl)-4H-1′-azaspiro[oxazole-5,3′-bicyclo[2.2.2]octan]-2-amine] | 59 nM |

Same assay, conditions: FLIPR α7 activity rating (EC50, nM), Table 1; HEK 293 cells, agonist Ca2+ flux

| SMILES | EC50 |
| --- | --- |
| Clc1ccc2nc(NC3=NC[C@@]4(CN5CCC4CC5)O3)sc2n1 [Example 268, (R)—N-(5-chlorothiazolo[5,4-b]pyridin-2-yl)-4H-1′-azaspiro[oxazole-5,3′bicyclo[2.2.2]octan]-2-amine] | < 100 nM |
| CN(C)c1ncc2nc(NC3=NC[C@@]4(CN5CCC4CC5)O3)sc2n1 [Example 269, (R)—N^5,N^5-dimethyl-N^2-(4H-1′-azaspiro[oxazole-5,3′-bicyclo[2.2.2]octane]-2-yl)thiazolo[5,4-d]pyrimidine-2,5-diamine] | 1000 to 100000 nM |
| c1cn2nc(NC3=NC[C@@]4(CN5CCC4CC5)O3)nc2cn1 [Example 270, (R)—N-([1,2,4]Triazol[1,5-a]pyrazin-2-yl)-4H-1′-azaspiro[oxazole-5,3′-bicyclo[2.2.2]octan]-2-amine] | < 100 nM |
| c1cnc2sc(NC3=NC[C@@]4(CN5CCC4CC5)O3)nc2c1 [Example 271, (R)—N-(Thiazolo[5,4-h]pyridin-2-yl)-4H-1′-azaspiro[oxazole-5,3′-bicyclo[2.2.2]octan]-2-amine] | < 100 nM |
| c1cnc2sc(NC3=NC[C@@]4(CN5CCC4CC5)O3)nc2n1 [Example 272, (R)—N-(Thiazolo[5,4-b]pyrazin-2-yl)-4H-1′-azaspiro[oxazole-5,3′-bicyclo[2.2.2]octan]-2-amine] | < 100 nM |
| COc1nc(C)nc2sc(NC3=NC[C@@]4(CN5CCC4CC5)O3)nc12 [Example 273, (R)—N-(7-Methoxy-5-methylthiazolo[5,4-d]pyrimidin-2-yl)-4H-1′-azaspiro[oxazole-5,3′-bicyclo[2.2.2]octan]-2-amine] | 1000 to 100000 nM |
| COc1ncnc2sc(NC3=NC[C@@]4(CN5CCC4CC5)O3)nc12 [Example 274, (R)—N-(7-Methoxythiazolo[5,4-d]pyrimidin-2-yl)-4H-1′-azaspiro[oxazole-5,3′-bicyclo[2.2.2]octan]-2-amine] | 1000 to 100000 nM |
| N#Cc1cnc(NC2=NC[C@@]3(CN4CCC3CC4)O2)s1 [Example 275, (R)-2-(4H-1′-Azaspiro[oxazole-5,3′-bicyclo[2.2.2]octan]-2-ylamino)thiazole-5-carbonitrile] | 100 to 1000 nM |
| c1cc2nc(NC3=NC[C@@]4(CN5CCC4CC5)O3)ccc2cn1 [Example 277, (R)—N-(1,6-Naphthyridin-2-yl)-4H-1′-azaspiro[oxazole-5,3′-bicyclo[2.2.2]octan]-2-amine] | < 100 nM |
| Clc1cc(Cl)c2cnc(NC3=NC[C@@]4(CN5CCC4CC5)O3)cc2c1 [Example 279, (R)—N-(6,8-Dichloroisoquinolin-3-yl)-4H-1′-azaspiro[oxazole-5,3′-bicyclo[2.2.2]octan]-2-amine] | 100 to 1000 nM |
| Clc1ccc2cnc(NC3=NC[C@@]4(CN5CCC4CC5)O3)cc2c1Cl [Example 281, (R)—N-(5,6-Dichloroisoquinolin-3-yl)-4H-1′-azaspiro[oxazole-5,3′-bicyclo[2.2.2]octan]-2-amine] | < 100 nM |
| Clc1ccnc(NC2=NC[C@@]3(CN4CCC3CC4)O2)c1Cl [Example 282, (R)—N-(3,4-Dichloropyridin-2-yl)-4H-1′-azaspiro[oxazole-5,3′-bicyclo[2.2.2]octan]-2-amine] | 100 to 1000 nM |
| Clc1cccnc1NC1=NC[C@@]2(CN3CCC2CC3)O1 [Example 283, (R)—N-(3-Chloropyridin-2-yl)-4H-1′-azaspiro[oxazole-5,3′-bicyclo[2.2.2]octan]-2-amine] | 100 to 1000 nM |
| Fc1cc(Cl)cnc1NC1=NC[C@@]2(CN3CCC2CC3)O1 [Example 284, (R)—N-(5-Chloro-3-fluoropyridin-2-yl)-4H-1′-azaspiro[oxazole-5,3′-bicyclo[2.2.2]octan]-2-amine] | < 100 nM |
| Clc1cccc(NC2=NC[C@@]3(CN4CCC3CC4)O2)n1 [Example 285, (R)—N-(6-Chloropyridin-2-yl)-4H-1′-azaspiro[oxazole-5,3′-bicyclo[2.2.2]octan]-2-amine] | 100 to 1000 nM |
| Clc1cc(Cl)nc(NC2=NC[C@@]3(CN4CCC3CC4)O2)c1 [Example 286, (R)—N-(4,6-Dichloropyridin-2-yl)-4H-1′-azaspiro[oxazole-5,3′-bicyclo[2.2.2]octan]-2-amine] | 100 to 1000 nM |
| COc1ncccc1-c1ccnc(NC2=NC[C@@]3(CN4CCC3CC4)O2)c1 [Example 287, (R)—N-(2-methoxy-3,4′-bipyridin-2′-yl)-4H-1′-azaspiro[oxazole-5,3′-bicyclo[2.2.2]octan]-2-amine] | 100 to 1000 nM |
| c1ccc2oc(NC3=NC[C@@]4(CN5CCC4CC5)O3)nc2c1 [Example 288, (R)—N-(Benzo[d]oxazol-2-yl)-4H-1′-azaspiro[oxazole-5,3′-bicyclo[2.2.2]octan]-2-amine] | < 100 nM |
| Clc1ccc2oc(NC3=NC[C@@]4(CN5CCC4CC5)O3)nc2c1 [Example 289, (R)—N-(5-Chlorobenzo[d]oxazol-2-yl)-4H-1′-azaspiro[oxazole-5,3′-bicyclo[2.2.2]octan]-2-amine] | < 100 nM |
| c1cnc2nc(NC3=NC[C@@]4(CN5CCC4CC5)O3)oc2c1 [Example 290, (R)—N-(Oxazolo[4,5-b]pyridin-2-yl)-4H-1′-azaspiro[oxazole-5,3′-bicyclo[2.2.2]octan]-2-amine] | < 100 nM |
| Cc1ccc2cnc(NC3=NC[C@@]4(CN5CCC4CC5)O3)cc2c1 [Example 291, (R)—N-(6-Methylisoquinolin-3-yl)-4H-1′-azaspiro[oxazole-5,3′-bicyclo[2.2.2]octan]-2-amine] | < 100 nM |
| Brc1ccc2cnc(NC3=NC[C@@]4(CN5CCC4CC5)O3)cc2c1 [Example 292, (R)—N-(6-Bromoisoquinolin-3-yl)-4H-1′-azaspiro[oxazole-5,3′-bicyclo[2.2.2]octan]-2-amine] | < 100 nM |
| Brc1ccc2cc(NC3=NC[C@@]4(CN5CCC4CC5)O3)ncc2c1 [Example 293, (R)—N-(7-Bromoisoquinolin-3-yl)-4H-1′-azaspiro[oxazole-5,3′-bicyclo[2.2.2]octan]-2-amine] | 100 to 1000 nM |
| Brc1cccc2cnc(NC3=NC[C@@]4(CN5CCC4CC5)O3)cc12 [Example 294, (R)—N-(5-bromoisoquinolin-3-yl)-4H-1′-azaspiro[oxazole-5,3′-bicyclo[2.2.2]octan]-2-amine] | < 100 nM |
| Cc1cc(C)c2cnc(NC3=NC[C@@]4(CN5CCC4CC5)O3)cc2c1 [Example 295, (2R)—N-(6,8-Dimethyl-3-isoquinolinyl)-4′H-spiro[4-azabicyclo[2.2.2]octane-2,5′-[1,3]oxazol]-2′-amine] | 100 to 1000 nM |

Same assay, conditions: FLIPR α7 activity rating (EC50, nM), Table Ib; HEK 293 cells, agonist Ca2+ flux

| SMILES | EC50 |
| --- | --- |
| c1cncc(-c2ccnc(NC3=NC[C@@]4(CN5CCC4CC5)O3)c2)c1 [Example 296, (R)—N-(3,4′-Bipyridin-2′-yl)-4H-1′-azaspiro[oxazole-5,3′-bicyclo[2.2.2]octan]-2-amine] | < 100 nM |
| Clc1cncc(-c2ccnc(NC3=NC[C@@]4(CN5CCC4CC5)O3)c2)c1 [Example 297, (R)—N-(5-Chloro-3,4′-bipyridin-2′-yl)-4H-1′-azaspiro[oxazole-5,3′-bicyclo[2.2.2]octan]-2-amine] | < 100 nM |
| COc1ccc(-c2ccnc(NC3=NC[C@@]4(CN5CCC4CC5)O3)c2)cn1 [Example 298, (R)—N-(6-Methoxy-3,4′-bipyridin-2′-yl)-4H-1′-azaspiro[oxazole-5,3′-bicyclo[2.2.2]octan]-2-amine] | < 100 nM |
| Fc1ccc(-c2ccnc(NC3=NC[C@@]4(CN5CCC4CC5)O3)c2)cn1 [Example 299, (R)—N-(6-Fluoro-3,4′-bipyridin-2′-yl)-4H-1′-azaspiro[oxazole-5,3′-bicyclo[2.2.2]octan]-2-amine] | < 100 nM |
| Fc1ccc(-c2ccnc(NC3=NC[C@@]4(CN5CCC4CC5)O3)c2)cc1Cl [Example 300, (R)—N-(4-(3-Chloro-4-fluoro-phenyl)pyridin-2-yl)-4H-1′-azaspiro[oxazole-5,3′-bicyclo[2.2.2]octan]-2-amine] | < 100 nM |
| Cc1cccc(-c2ccnc(NC3=NC[C@@]4(CN5CCC4CC5)O3)c2)c1 [Example 301, (R)—N-(4-m-Tolylpyridin-2-yl)-4H-1′-azaspiro[oxazole-5,3′-bicyclo[2.2.2]octan]-2-amine] | < 100 nM |
| c1ccc(-c2ccnc(NC3=NC[C@@]4(CN5CCC4CC5)O3)c2)cc1 [Example 302, (R)—N-(4-Phenylpyridin-2-yl)-4H-1′-azaspiro[oxazole-5,3′-bicyclo[2.2.2]octan]-2-amine] | < 100 nM |
| Cn1cc(-c2ccnc(NC3=NC[C@@]4(CN5CCC4CC5)O3)c2)cn1 [Example 303, (R)—N-(4-(1-Methyl-1H-pyrazol-4-yl)pyridin-2-yl)-4H-1′-azaspiro[oxazole-5,3′-bicyclo[2.2.2]octan]-2-amine] | < 100 nM |
| c1cc(-c2cscn2)cc(NC2=NC[C@@]3(CN4CCC3CC4)O2)n1 [Example 304, (R)—N-(4-(Thiazol-4-yl)pyridin-2-yl)-4H-1′-azaspiro[oxazole-5,3′-bicyclo[2.2.2]octan]-2-amine] | < 100 nM |
| O=[N+]([O-])c1ccc(-c2ccnc(NC3=NC[C@@]4(CN5CCC4CC5)O3)c2)cn1 [Example 305, (R)—N-(6-Nitro-3,4′-bipyridin-2′-yl)-4H-1′-azaspiro[oxazole-5,3′-bicyclo[2.2.2]octan]-2-amine] | < 100 nM |
| Cc1nc(NC2=NC[C@@]3(CN4CCC3CC4)O2)ccc1Cl [Example 306, (R)—N-(5-Chloro-6-methylpyridin-2-yl)-4H-1′-azaspiro[oxazole-5,3′-bicyclo[2.2.2]octan]-2-amine] | < 100 nM |
| Cc1cc(NC2=NC[C@@]3(CN4CCC3CC4)O2)ncc1F [Example 307, (R)—N-(5-Fluoro-4-methylpyridin-2-yl)-4H-1′-azaspiro[oxazole-5,3′-bicyclo[2.2.2]octan]-2-amine] | < 100 nM |
| Cc1nc(NC2=NC[C@@]3(CN4CCC3CC4)O2)c(Cl)cc1Cl [Example 308, (R)—N-(3,5-Dichloro-6-methylpyridin-2-yl)-4H-1′-azaspiro[oxazole-5,3′-bicyclo[2.2.2]octan]-2-amine] | < 100 nM |
